# Reference: publication PMC8303963, “Action of Multiple Rice β-Glucosidases on Abscisic Acid Glucose Ester” (International Journal of Molecular Sciences, 2021)
# Target: T1, Os9BGlu31 (Oryza sativa, UniProt B7F7K7)
# T1 construct: gene BGLU31; recombinant from E. coli, IMAC purified
# T1 sequence (B7F7K7 23-523): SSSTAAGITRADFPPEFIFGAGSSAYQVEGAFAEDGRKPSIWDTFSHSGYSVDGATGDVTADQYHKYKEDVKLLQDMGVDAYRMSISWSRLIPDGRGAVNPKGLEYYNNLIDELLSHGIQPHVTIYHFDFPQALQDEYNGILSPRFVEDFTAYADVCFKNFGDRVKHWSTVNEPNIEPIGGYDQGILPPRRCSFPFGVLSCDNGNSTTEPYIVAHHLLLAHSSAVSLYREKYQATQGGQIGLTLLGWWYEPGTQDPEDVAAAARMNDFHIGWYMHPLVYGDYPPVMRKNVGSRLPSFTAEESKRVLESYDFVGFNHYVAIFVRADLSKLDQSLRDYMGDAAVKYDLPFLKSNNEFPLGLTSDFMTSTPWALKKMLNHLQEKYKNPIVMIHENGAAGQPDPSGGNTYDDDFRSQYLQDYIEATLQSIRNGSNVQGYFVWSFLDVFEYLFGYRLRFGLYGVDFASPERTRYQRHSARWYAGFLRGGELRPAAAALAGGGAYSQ
# Test: preparative transglucosylation, product by NMR and UHPLC
# Assay type: biochemical
# Settings: glucose acceptor; 10 mM ABA, 10 mM pNPGlc as donor, citrate buffer pH 4.5, 37 °C overnight
smiles,measurement,value
CC1=CC(=O)CC(C)(C)[C@@]1(O)/C=C/C(C)=C\C(=O)O [ABA],"preparative transglucosylation, product by NMR and UHPLC",used to transfer glucose from pNPGlc to ABA to generate ABA-GE
